Test results from patent US12325022B2, “Microfluidic device, system, and method for the study of organisms” (ECOLE POLYTECHNIQUE FEDERALE DE LAUSANNE (EPFL), priority 2014, dated 2025).
Entries after “also recorded” stand apart in the source; their conditions may differ.

Tests used:
[1] = tested on: N2 wild-type C. elegans worms and their embryos; assay: on-chip 5-FU treatment of worms with monitoring of embryo development in the incubator array; format: in vivo; conditions: worms treated on-chip from L4 stage with 2 mM in M9 buffer at 25° C.; embryos monitored for 12 h (array pictures at 600 minutes)
Protocol: Bar graphs are expressed as mean+SEM, *** p≤0.001.
Wild-type worms were isolated in the culture chamber at the L4 larval stage and treated on-chip with 5-FU at a concentration of 2 mM, while being cultured at 25° C. towards the adult stage. Subsequently, embryos were transferred to the incubator array and monitored for 12 h.

wild-type C. elegans [2] = assay: whole plant or invertebrate; conditions: Caenorhabditis elegans, read-out: EC50 of dose-response curve (mean percentage of paralyzed worms)
Protocol: (§1) The aim of the experiment was to correlate the concentration of the drug with the number of paralyzed worms over time, and to trace a dose-response curve for this drug.
(§2) L1 specimens of wild-type C. elegans have been injected in the chip with the above-described protocol and fed them for 2-3 days to get adult worms. […] The wells were plugged in the inlet and sucked with a syringe from the outlet at total outflows between 100-200 nL/s for 40-80 minutes. The procedure was recorded in real-time for all the chambers at the same time by using a stereo-microscope. It was used a suitable ring-shape back-illumination to enhance the contrast and make the adult worms much lighter than the background.
(§3) Image analysis was done afterwards directly on the video recorded: the number of paralyzed worms per chamber were counted every 10 minutes from the beginning of the drug injection, and the total percentage of paralyzed worms per channel (1 channel=1 concentration) was calculated.

wild-type C. elegans [3] = conditions: sigmoid fit; paralyzed worms between 30 and 40 minutes after tetramisole injection
Protocol: as §1, §2, §3

SMILES	development of embryos laid by treated worms [1]	EC50 (wild-type C. elegans [2])	Hill slope of dose-response curve (paralyzed worms) (wild-type C. elegans [3])
O=c1[nH]cc(F)c(=O)[nH]1 [5-FU, 5-fluorouracil]	All embryos prematurely died; also recorded: blocked development		
c1ccc(C2CN3CCSC3=N2)cc1 (stereo not drawn) [tetramisole]		~57 µM	about 0.02 μM
